This passage reports TGI results from PubChem BioAssay (NCI).

Among the test systems are A549 NSCLC; COLO 205 colon; HCT-116 colon; HS 578T breast; KM12 colon; LOX IMVI melanoma; M14 melanoma; MALME-3M melanoma; NCI-H23 lung; NCI/ADR-RES ovarian; OVCAR-3 ovarian; PC-3 prostate; SNB-75 CNS; SR leukemia; UACC-257 melanoma; NCI-H522 lung.
Holding throughout (assay): NCI-60 cell line screen, 48 h

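1) Cells in 96-well plates. 2) Compound, 48 h, 5 concentrations. 3) Linear interpolation between surrounding doses. 4) Unreached endpoint = highest concentration. TGI: total growth inhibition.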 A value given as a limit tells only on which side of the number the result lay.

Turning to `COc1ccc(C2SC(N)=Nc3c2c(C)nn3C(=O)c2ccccc2O)cc1OC` (centres undefined), the TGI with A549 NSCLC is over 10 µM; in the test on COLO 205 colon it was over 10 µM; in the test on HCT-116 colon it was 7.47 µM; in the test with HS 578T breast, 5.11 µM; with KM12 colon, over 10 µM; in the test with LOX IMVI melanoma it was over 10 µM. The TGI in the test with M14 melanoma, in the test with MALME-3M melanoma, in the test with NCI-H23 lung, in the test on NCI/ADR-RES ovarian, in the test on OVCAR-3 ovarian and in the test on PC-3 prostate was over 10 µM each time. Also, the TGI with SNB-75 CNS is 9.32 µM; in the test on SR leukemia, over 10 µM; in the test on UACC-257 melanoma, over 10 µM.
Consider `CSC1=N/C(=C\c2ccc(Cl)cc2)C(=O)N1CN1CCCCC1`, for which the TGI in the test with A549 NSCLC, with COLO 205 colon, in the test on HCT-116 colon, in the test on HS 578T breast, with KM12 colon and in the test on LOX IMVI melanoma was over 100 µM each time. Besides, the TGI with M14 melanoma was over 100 µM; with MALME-3M melanoma it was 91.7 µM; with NCI-H23 lung, over 100 µM; with NCI-H522 lung, over 100 µM; in the test with NCI/ADR-RES ovarian, over 100 µM; with OVCAR-3 ovarian, over 100 µM. Besides, the TGI in the test on PC-3 prostate, in the test on SNB-75 CNS and in the test with SR leukemia was over 100 µM in each case.
As to `N#CC12C(=O)N3C(=NC(c4ccco4)NC3c3ccco3)C1(C#N)C(c1ccco1)NC1=C2CCCC1` (centres undefined), the TGI in the test on A549 NSCLC, in the test with COLO 205 colon, with HCT-116 colon, in the test on HS 578T breast, in the test with KM12 colon and with LOX IMVI melanoma was over 100 µM in each case. Moreover, the TGI in the test on M14 melanoma, in the test with MALME-3M melanoma, in the test with NCI-H23 lung, in the test on NCI-H522 lung, in the test with NCI/ADR-RES ovarian and in the test with PC-3 prostate was over 100 µM throughout. The TGI with SR leukemia and in the test with UACC-257 melanoma was over 100 µM in each case.
On to `c1csc(-c2nn3c(C45CC6CC(CC(C6)C4)C5)nnc3s2)c1`, for which the TGI in the test with A549 NSCLC, in the test with COLO 205 colon, in the test with HCT-116 colon, in the test on HS 578T breast, in the test on LOX IMVI melanoma and in the test on M14 melanoma was over 100 µM in each case. Also, the TGI with MALME-3M melanoma, in the test with NCI-H23 lung, in the test with NCI-H522 lung, in the test with NCI/ADR-RES ovarian, with OVCAR-3 ovarian and in the test on PC-3 prostate was over 100 µM in each case. Also, the TGI in the test with SNB-75 CNS, in the test with SR leukemia and in the test on UACC-257 melanoma was over 100 µM in each case.
In the case of `Nc1nc(Cl)cc(NCC2(O)CCC2)n1`, the TGI in the test with A549 NSCLC, with COLO 205 colon, with HCT-116 colon, in the test on HS 578T breast, in the test on KM12 colon and in the test on LOX IMVI melanoma was over 100 µM throughout. Moreover, the TGI with MALME-3M melanoma, in the test with NCI-H23 lung, with NCI-H522 lung, in the test on NCI/ADR-RES ovarian, in the test on OVCAR-3 ovarian and in the test on PC-3 prostate was over 100 µM throughout. Moreover, the TGI in the test with SNB-75 CNS, with SR leukemia and with UACC-257 melanoma was over 100 µM each time.
For `CO/C=C/C=C(\C#N)C(=O)OC`, the TGI in the test on A549 NSCLC, with COLO 205 colon, in the test on HCT-116 colon, with HS 578T breast, in the test on KM12 colon and in the test with LOX IMVI melanoma was over 100 µM in each case. In addition, the TGI with MALME-3M melanoma, with NCI-H23 lung, with NCI-H522 lung, with NCI/ADR-RES ovarian, with OVCAR-3 ovarian and in the test on PC-3 prostate was over 100 µM throughout. Also, the TGI in the test on SNB-75 CNS, with SR leukemia and in the test with UACC-257 melanoma was over 100 µM in each case.
For the molecule `O=C(O)c1ccccc1C(=O)NCC1S(=O)(=O)OCCOS1(=O)=O`, the TGI in the test on A549 NSCLC, in the test with COLO 205 colon, in the test on HCT-116 colon, in the test on HS 578T breast, in the test on LOX IMVI melanoma and with M14 melanoma was over 100 µM each time. The TGI in the test with MALME-3M melanoma, in the test with NCI-H23 lung, in the test on NCI-H522 lung, in the test on NCI/ADR-RES ovarian, in the test on OVCAR-3 ovarian and in the test with PC-3 prostate was over 100 µM each time. The TGI in the test on SNB-75 CNS, in the test on SR leukemia and in the test on UACC-257 melanoma was over 100 µM each time.
Consider `Cc1c(C)c2ccc(OCC(O)COC(C)C)c(C)c2oc1=O` (centres undefined), for which the TGI was over 100 µM with A549 NSCLC; over 10 µM in the test on COLO 205 colon; 36 µM in the test with HCT-116 colon; over 100 µM with HS 578T breast; over 100 µM in the test with KM12 colon; 42.2 µM with LOX IMVI melanoma. Further, the TGI is 42 µM in the test with M14 melanoma; 30.3 µM in the test on MALME-3M melanoma; over 100 µM in the test on NCI-H23 lung; 45.8 µM in the test with NCI-H522 lung; over 100 µM in the test on NCI/ADR-RES ovarian; over 100 µM in the test with OVCAR-3 ovarian. The TGI in the test on PC-3 prostate was over 100 µM; in the test on SR leukemia, 87.4 µM; in the test on UACC-257 melanoma, 43.4 µM.
`COc1cc2c(cc1OC)OC(c1c(OC)ccc(OC)c1O)CC2` (centres undefined): the TGI with A549 NSCLC, in the test with COLO 205 colon, in the test on HCT-116 colon, in the test with HS 578T breast, with KM12 colon and in the test on LOX IMVI melanoma was over 100 µM in each case. The TGI with M14 melanoma, with MALME-3M melanoma, with NCI-H23 lung, with NCI/ADR-RES ovarian, in the test on OVCAR-3 ovarian and in the test on PC-3 prostate was over 100 µM throughout. Further, the TGI with SNB-75 CNS, in the test with SR leukemia and in the test on UACC-257 melanoma was over 100 µM each time.
